The values below come from ChEMBL document CHEMBL4706518, “Discovery of MGS0274, an ester prodrug of a metabotropic glutamate receptor 2/3 agonist with improved oral bioavailability” (Eur J Med Chem, 2020).

A value given as a limit tells only on which side of the number the result lay.

Series [1] in a line: Stability of compound in HCL at pH 1.2 assessed as remaining parent compound at 50 ug/ml after 1 hr by HPLC analysis. The class given is physicochemical. The settings on record: HCl at pH 1.2, pH 1.2, at 50 µg/mL, read-out: Stabilty.
The nature of series [2]: Lipophilicity, logD of compound in n-octanol and phosphate buffered saline at 2 mg after 1.5 hrs by HPLC based shake flask method. The class given is physicochemical. The settings on record: for logD at 1.5 h: n-octanol/phosphate buffered saline.
A short description of series [3]: Stability of compound in PBS at pH 6.5 assessed as remaining parent compound at 50 ug/ml after 1 hr by HPLC analysis. The class given is physicochemical. The settings on record: PBS at pH 6.5, pH 6.5, at 50 µg/mL, read-out: Stabilty.
The nature of series [4]: Oral bioavailability in monkey at 4.92 umol/kg measured up to 24 hrs by LC-MS/MS analysis. The class given is ADME, organism-based, Macaca mulatta. The following applies: rhesus monkey, in vivo, at 4.92 µmol/kg.

In the case of `CC(OC(=O)OC1CCCCC1)OC(=O)[C@H]1[C@@H]2C[C@H](F)[C@@](N)(C(=O)O)[C@@H]21` (stereo partly drawn), the remaining at 1 h, 50 ug/ml in series [1] came out at 100%; in series [3], 97%. The molecule further displayed a logD at 1.5 h in series [2] of 0.58. Also, in series [4], the bioavailability was determined as 18%.
In the case of `Cc1oc(=O)oc1COC(=O)[C@@]1(N)[C@H]2[C@@H](C[C@@H]1F)[C@@H]2C(=O)O`, the remaining at 1 h, 50 ug/ml in series [1] came out at 95%; in series [3], 54%. The same molecule registered a logD at 1.5 h in series [2] of -0.95.
For the molecule `Cc1oc(=O)oc1COC(=O)[C@H]1[C@@H]2C[C@H](F)[C@@](N)(C(=O)O)[C@@H]21`, the values for the remaining at 1 h, 50 ug/ml in series [1] and in series [3] were 99% and 98%, respectively. The same molecule had a logD at 1.5 h in series [2] of -1.69.
The corresponding values for `N[C@]1(C(=O)O)[C@H]2[C@@H](C[C@@H]1F)[C@@H]2C(=O)OC1OC(=O)c2ccccc21` (stereo partly drawn) are 99%, 97% and -0.71.
For the molecule `CC(OC(=O)OC12CC3CC(CC(C3)C1)C2)OC(=O)[C@H]1[C@@H]2C[C@H](F)[C@@](N)(C(=O)O)[C@@H]21` (stereo partly drawn), the remaining at 1 h, 50 ug/ml in series [1] stood at 95%; in series [3], 97%. The same molecule yielded a logD at 1.5 h in series [2] of 1.67.
For `CC(OC(=O)OC1CCCCC1)OC(=O)[C@@]1(N)[C@H]2[C@@H](C[C@@H]1F)[C@@H]2C(=O)O` (stereo partly drawn), the results for the remaining at 1 h, 50 ug/ml in series [1] and in series [3] were 75% and 25%, respectively. Moreover, the logD entry in series [2] (1.5 h) is reported as “Nd(Unstable)”.
`CC(C)(C)C(=O)OCOC(=O)[C@H]1[C@@H]2C[C@H](F)[C@@](N)(C(=O)O)[C@@H]21`: the remaining at 1 h, 50 ug/ml was found to be 100% in series [1] and 99% in series [3]. Also, the logD at 1.5 h in series [2] was -0.54.
On to `CC(OC(=O)C(C)C)OC(=O)[C@H]1[C@@H]2C[C@H](F)[C@@](N)(C(=O)O)[C@@H]21` (stereo partly drawn), for which the remaining at 1 h, 50 ug/ml in series [1] came out at 100%; in series [3] it was 101%. The logD at 1.5 h in series [2] was below -0.65.
With `CC(C)[C@@H]1CC[C@@H](C)C[C@H]1OC(=O)O[C@H](C)OC(=O)[C@H]1[C@@H]2C[C@H](F)[C@@](N)(C(=O)O)[C@@H]21`, the logD at 1.5 h in series [2] was above 1.78.
Consider `CC(C)OC(=O)OC(C)OC(=O)[C@H]1[C@@H]2C[C@H](F)[C@@](N)(C(=O)O)[C@@H]21` (stereo partly drawn), for which the remaining at 1 h, 50 ug/ml in series [1] came out at 102%; in series [3], 101%. In series [2], the log distribution coefficient (logD) at 1.5 h was 0.06.
With `CC(OC(=O)O[C@@H]1C[C@H](C)CC[C@H]1C(C)C)OC(=O)[C@H]1[C@@H]2C[C@H](F)[C@@](N)(C(=O)O)[C@@H]21` (stereo partly drawn), the remaining at 1 h, 50 ug/ml in series [1] and in series [3] was 100% throughout. In series [2], this molecule registered a logD at 1.5 h of 2.77. In addition, the bioavailability in series [4] was 58%.
